According to patent publication US6881719B2, “β-turn peptidomimetic cyclic compounds” (McGill University, priority 2000, dated 2005):

Legend:
TrkA = TrkA (Homo sapiens, UniProt P04629); assay: Inhibition of agonistic activity of mAb 5C3; assay type: cell-based
B104 cells = assay: Cell survival control, B104 cells; assay type: cell-based, rat
Source text: (§1) The 4-3.6 cells are B104 cells stably transfected with human trkA cDNA, and express equal levels of p75 and TrkA (TrkA+ p75+). For screening agents that activate or antagonize TrkC receptors, NIH3T3 fibroblasts were stably transfected with human TrkC cDNA. These cells respond to the ligand NT-3. For screening agents that activate or antagonize TrkA receptors, NIH3T3 fibroblasts were stably transfected with human TrkA cDNA. These cells respond to the ligand NGF.
(§2) Cell lines: 5,000 cells/well in protein-free media (PFHM-II, GIBCO, Toronto) containing 0.2% bovine serum albumin (BSA) (Crystalline fraction V, Sigma, St. Louis, Mo.) were seeded in 96 well plates (Falcon, Mississauga, Ontario). The cultures were untreated, or treated with the indicated test or control ligands. Cell viability was quantitated using the MTT assay after 56-72 hours of culture. […] The OD of untreated cells were subtracted. The higher optical density of untreated primary cultures is likely due to cellular heterogeneity and to endogenous production of limiting amounts of growth factors.

septal neuronal cultures = assay: ChAT activity in septal neuronal cultures; assay type: cell-based, rat; details: day 8
Protocol: Cell cultures were established from the septal area of 17-day-old rat embryos. In brief, tissue was incubated in PBS containing trypsin and DNase. Tissue pieces then were mechanically dissociated. After centrifugation, the pellet was suspended in Leibovitz's L-15 medium. Cells were plated onto 96-multiwell NUNC dishes (10^5 cells/well) coated with poly-D-lysine (5 μg/ml). Pure cultures of septal neurons were treated 1 day after plating. Drugs, prepared in medium, were added directly to the cells without changing the initial medium. The incubation continued for 8 days, at which time ChAT activity was evaluated.
At day 8 of culture, the medium was aspirated, and ice-cold lysis buffer (10 mM sodium phosphate, pH 7.4/0.1% TritonX-100—Trade-mark) was added. ChAT activity assays were performed directly in the wells using Fonnum's method (Fonnum, 1975).

DRG neuronal cultures = assay: Morphometric analysis of DRG dissociated neurons (neurite outgrowth); assay type: cell-based, rat; details: 8 days
Protocol: In FIG. 1 primary neuronal DRG cultures were treated as indicated for 8 days, and cell differentiation was studied morphometrically. Magnification 60×. Pictures representative of 3 independent experiments.
(§3) Fetal rat DRG primary cultures were established from Sprague Dawley day 17 rat embryos. All ganglia were dissected and dissociated first enzymatically with trypsin and then mechanically. Dissociated cells were cultured (10^5 cells/well) in 96 well plates pre-coated with collagen, and grown for a total of 8 days in Neuro Basal Medium containing N2 supplement (GIBCO, Toronto), antibiotics, and L-glutamine. These DRG cultures are ˜85% TrkA-expressing and are heavily dependent on TrkA signals for survival.
The effect of D3 on TrkA-mediated cellular differentiation was assessed using two independent assays: morphometric analysis of DRG dissociated neurons and induction of ChAT activity in septal neuronal cultures.

[1] = molecular target: T1, cell surface TrkA (4-3.6 cells, p75+ TrkA+) (Homo sapiens, UniProt P04629); assay: FACScan binding of D3-biotin to 4-3.6 cells
T1 construct: expressed in transfected cells
T1 sequence (P04629 33-796): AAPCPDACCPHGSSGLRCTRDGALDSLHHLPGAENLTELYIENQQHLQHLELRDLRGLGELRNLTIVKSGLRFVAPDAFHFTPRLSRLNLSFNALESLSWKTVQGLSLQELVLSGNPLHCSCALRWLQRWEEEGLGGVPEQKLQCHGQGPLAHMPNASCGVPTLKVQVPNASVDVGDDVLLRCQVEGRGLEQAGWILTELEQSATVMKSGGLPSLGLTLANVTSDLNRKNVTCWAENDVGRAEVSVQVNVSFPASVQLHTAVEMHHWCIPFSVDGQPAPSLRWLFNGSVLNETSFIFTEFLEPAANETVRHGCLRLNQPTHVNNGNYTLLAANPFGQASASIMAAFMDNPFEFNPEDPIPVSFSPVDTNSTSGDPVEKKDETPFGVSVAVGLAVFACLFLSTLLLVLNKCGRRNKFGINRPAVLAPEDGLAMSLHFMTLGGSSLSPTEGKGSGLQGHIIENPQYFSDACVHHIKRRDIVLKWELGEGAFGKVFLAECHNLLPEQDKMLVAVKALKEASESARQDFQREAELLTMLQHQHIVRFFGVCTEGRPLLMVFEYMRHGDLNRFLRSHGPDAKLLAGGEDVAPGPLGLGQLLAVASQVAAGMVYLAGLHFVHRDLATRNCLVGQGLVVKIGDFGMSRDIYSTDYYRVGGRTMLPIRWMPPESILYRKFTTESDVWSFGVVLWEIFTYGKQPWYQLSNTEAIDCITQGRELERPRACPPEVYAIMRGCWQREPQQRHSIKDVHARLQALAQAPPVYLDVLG
Source text: as §1
FACScan binding assays: 4-3.6 cells (2×10^5) in FACScan binding buffer (PBS, 0.5% BSA, and 0.1% NaN3) were immunostained as described (Saragovi et al., 1998). Saturating anti-TrkA mAb 5C3, or anti-p75 mAb MC192, or control non-binding IgGs were added to cells for 1 hour at 4° C., in the presence or absence of D3 as competitor. Excess primary antibody was washed off, and cells were immunostained with fluorescinated goat-anti-mouse IgG secondary antibody. Cells were acquired on a FACScan and mean channel fluorescence of bell-shaped histograms were analyzed using the LYSIS II program.
FACScan analysis featuring the secondary fluorescent agent avidin-FITC was used to detect binding of D3-biotin to the cell surface (Table 1). The 4-3.6 cells (p75+TrkA+) had fluorescence approximately 4 times greater for D3-biotin than for a background control peptide-biotin.

[2] = Enhancement of trophic effect of EGF; assay type: cell-based
[3] = system: embryonic rat DRG primary neuronal cultures; assay: Cell survival (MTT), primary DRG cultures; assay type: cell-based; details: 8 days;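 as to % Protection: 100% equals survival with optimal NGF at 1 nM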
Protocol: as §3
Primary DRG cultures: After a total of 8 days of culture with the indicated test or control ligands, cell survival were studied using the 3(4,5-Dimethylthiazolyl-2)-2,5-diphenyl tetrazolium bromide colorimetric (MTT) assay, and by microscopic observation.
as §2

Chain of TrkA (P04629 33-796): as above

NCCCC[C@@H]1NC(=O)[C@H](CCC(=O)O)NC(=O)c2cc([N+](=O)[O-])ccc2OCCC(C(=O)NCC(=O)O)NC1=O (stereo partly drawn) [D3, EKHse-G-OH]
inhibition of optimal agonistic activity of mAb 5C3 (TrkA): inhibited by D3 in a dose-dependent manner | protection from apoptosis (B104 cells): neither D3 nor NGF protected | ChAT Activity (septal neuronal cultures; compound 0.2 μM + 10 pM NGF): 0.60 ± 0.04 pmol Ach/min/well | Fold Increase (ChAT activity) (septal neuronal cultures; compound 0.2 μM + 10 pM NGF): 2.00 | ChAT Activity (septal neuronal cultures; compound 0.2 μM alone): 0.37 ± 0.05 pmol Ach/min/well | Fold Increase (ChAT activity) (septal neuronal cultures; compound 0.2 μM alone): 1.23 | ChAT Activity (septal neuronal cultures; compound 2 μM + 10 pM NGF): 0.76 ± 0.03 pmol Ach/min/well | Fold Increase (ChAT activity) (septal neuronal cultures; compound 2 μM + 10 pM NGF): 2.53 | ChAT Activity (septal neuronal cultures; compound 2 μM alone): 0.44 ± 0.02 pmol Ach/min/well | Fold Increase (ChAT activity) (septal neuronal cultures; compound 2 μM alone): 1.47 | ChAT Activity (septal neuronal cultures; compound 20 μM + 10 pM NGF): 0.79 ± 0.04 pmol Ach/min/well | Fold Increase (ChAT activity) (septal neuronal cultures; compound 20 μM + 10 pM NGF): 2.63 | ChAT Activity (septal neuronal cultures; compound 20 μM alone): 0.48 ± 0.06 pmol Ach/min/well | Fold Increase (ChAT activity) (septal neuronal cultures; compound 20 μM alone): 1.56 | neurite outgrowth (DRG neuronal cultures; D3 alone): undergo neurite outgrowth in response to D3 | potentiation of NGF effect on neurite outgrowth (DRG neuronal cultures; D3 with NGF): potentiates the effect of NGF | competition of D3-biotin binding ([1]; 10-fold molar excess of D3): abolished binding of D3-biotin | MCF (mean channel fluorescence) ([1]; D3-biotin 20 μM + D3 200 μM as competitor): 17 ± 7 | enhancement of the trophic effect of EGF [2]: did not enhance | % Protection ([3]; compound 10 μM + NGF 20 pM): 48 ± 3% | Optical Density ([3]; compound 10 μM + NGF 20 pM): 471 ± 28 | % Protection ([3]; compound 10 μM + NGF 500 pM): 84 ± 3% | Optical Density ([3]; compound 10 μM + NGF 500 pM): 603 ± 26 | % Protection ([3]; compound 10 μM + NGF 1 nM): 120 ± 7% | Optical Density ([3]; compound 10 μM + NGF 1 nM): 977 ± 38 | % Protection ([3]; compound 10 μM alone): 38 ± 2% | Optical Density ([3]; compound 10 μM alone): 405 ± 22
